Assay results published in ChEMBL document CHEMBL1150338, “Prediction and identification of drug interactions with the human ATP-binding cassette transporter multidrug-resistance associated protein 2 (MRP2; ABCC2)” (J Med Chem, 2008).

Experiments:
[1] = biological target: ATP-binding cassette sub-family C member 2 (Homo sapiens, UniProt Q92887); assay: Inhibition of human MRP2-mediated estradiol-17-beta-glucuronide transport in Sf9 cells inverted membrane vesicles
[2] = biological target: MRP2 (ABCC2) (Homo sapiens, UniProt Q92887); assay: in vitro;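 also: Inside-out membrane vesicles from Sf9 insect cells expressing human MRP2, measuring uptake of the estradiol glucuronide substrate, expressed as percent of untreated control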
MRP2 (ABCC2), sequence (Q92887 whole entry): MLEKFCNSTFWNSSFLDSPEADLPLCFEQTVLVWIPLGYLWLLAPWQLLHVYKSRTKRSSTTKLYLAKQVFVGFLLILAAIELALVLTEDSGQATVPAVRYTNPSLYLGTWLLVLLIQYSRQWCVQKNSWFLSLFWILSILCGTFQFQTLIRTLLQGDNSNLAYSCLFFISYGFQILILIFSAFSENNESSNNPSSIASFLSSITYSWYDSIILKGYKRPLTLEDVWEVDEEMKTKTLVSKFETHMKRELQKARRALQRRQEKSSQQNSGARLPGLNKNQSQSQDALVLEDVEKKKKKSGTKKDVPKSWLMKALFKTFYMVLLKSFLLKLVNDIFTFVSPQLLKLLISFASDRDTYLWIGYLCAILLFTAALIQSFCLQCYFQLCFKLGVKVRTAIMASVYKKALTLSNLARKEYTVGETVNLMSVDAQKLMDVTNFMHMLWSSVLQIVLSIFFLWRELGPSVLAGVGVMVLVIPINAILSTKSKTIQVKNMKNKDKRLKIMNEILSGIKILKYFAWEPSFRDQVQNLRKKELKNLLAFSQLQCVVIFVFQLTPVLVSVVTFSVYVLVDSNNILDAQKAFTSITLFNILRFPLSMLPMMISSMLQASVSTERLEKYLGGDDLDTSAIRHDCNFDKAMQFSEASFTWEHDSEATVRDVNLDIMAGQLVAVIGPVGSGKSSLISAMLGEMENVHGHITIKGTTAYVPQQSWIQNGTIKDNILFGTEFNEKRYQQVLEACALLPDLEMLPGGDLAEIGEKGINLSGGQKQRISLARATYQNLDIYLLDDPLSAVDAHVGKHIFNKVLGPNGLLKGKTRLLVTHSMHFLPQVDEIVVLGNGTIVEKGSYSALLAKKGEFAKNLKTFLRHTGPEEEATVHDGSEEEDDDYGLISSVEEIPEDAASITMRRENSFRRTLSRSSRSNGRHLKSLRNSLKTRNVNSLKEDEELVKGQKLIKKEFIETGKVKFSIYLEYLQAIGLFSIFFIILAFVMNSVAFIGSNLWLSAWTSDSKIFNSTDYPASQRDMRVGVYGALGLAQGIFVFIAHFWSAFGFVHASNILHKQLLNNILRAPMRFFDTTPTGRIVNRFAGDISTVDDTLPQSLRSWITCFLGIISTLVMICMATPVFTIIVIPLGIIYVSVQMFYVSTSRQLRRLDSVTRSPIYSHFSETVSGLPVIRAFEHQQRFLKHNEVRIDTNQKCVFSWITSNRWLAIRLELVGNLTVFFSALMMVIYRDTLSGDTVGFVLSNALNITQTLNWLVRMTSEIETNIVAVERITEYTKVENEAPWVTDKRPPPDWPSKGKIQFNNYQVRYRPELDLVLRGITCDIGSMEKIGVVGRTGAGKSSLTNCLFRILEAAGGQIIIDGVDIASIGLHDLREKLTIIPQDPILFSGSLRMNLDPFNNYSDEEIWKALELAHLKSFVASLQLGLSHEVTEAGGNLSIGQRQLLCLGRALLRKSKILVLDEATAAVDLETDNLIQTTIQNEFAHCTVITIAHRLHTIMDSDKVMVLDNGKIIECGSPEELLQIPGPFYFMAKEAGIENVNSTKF
Description: Effect on human MRP2-mediated estradiol-17-beta-glucuronide transport in Sf9 cells inverted membrane vesicles relative to control

[3] = probe estradiol-17-beta-glucuronide

ATP-binding cassette sub-family C member 2, sequence (Q92887 whole entry): as above

SMILES: CN(C)C(=O)CCSC(SCCC(=O)O)c1cccc(/C=C/c2ccc3ccc(Cl)cc3n2)c1 (configuration not stated) [MK-571]
- IC50 [1]: 10 µM
- activity ([2]; sf9): 9%

SMILES: CC(=O)[C@H]1CC[C@H]2[C@@H]3CCC4=CC(=O)CC[C@]4(C)[C@H]3CC[C@]12C [PROGESTERONE]
- activity [2, 3]: 123%

SMILES: CCCNCC(O)COc1ccccc1C(=O)CCc1ccccc1 (configuration not stated) [PROPAFENONE]
- activity ([2]; sf9): 58%

SMILES: CC(C)NCC(O)COc1cccc2ccccc12 (configuration not stated) [PROPRANOLOL]
- activity [2, 3]: 69%

SMILES: O=c1c(O)c(-c2ccc(O)c(O)c2)oc2cc(O)cc(O)c12 [QUERCETIN]
- activity [2, 3]: 40%

SMILES: C=C[C@H]1C[N@@]2CC[C@H]1C[C@@H]2[C@@H](O)c1ccnc2ccc(OC)cc12 [QUINIDINE]
- activity [2, 3]: 64%

SMILES: C=C[C@H]1C[N@@]2CC[C@H]1C[C@H]2[C@H](O)c1ccnc2ccc(OC)cc12 [QUININE]
- activity [2, 3]: 75%

SMILES: CNC(=C[N+](=O)[O-])NCCSCc1ccc(CN(C)C)o1 [RANITIDINE]
- activity [2, 3]: 52%

SMILES: COC(=O)[C@H]1[C@H]2C[C@@H]3c4[nH]c5cc(OC)ccc5c4CCN3C[C@H]2C[C@@H](OC(=O)c2cc(OC)c(OC)c(OC)c2)[C@@H]1OC [RESERPINE]
- activity ([2]; sf9): 37%

SMILES: Oc1ccc(/C=C/c2cc(O)cc(O)c2)cc1 [RESVERATROL]
- activity [2, 3]: 75%

SMILES: CO[C@H]1/C=C/O[C@@]2(C)Oc3c(C)c(O)c4c(O)c(c(/C=N/N5CCN(C)CC5)c(O)c4c3C2=O)NC(=O)/C(C)=C\C=C\[C@H](C)[C@H](O)[C@@H](C)[C@@H](O)[C@@H](C)[C@H](OC(C)=O)[C@@H]1C [RIFAMPIN]
- activity [2, 3]: 18%

SMILES: Cc1nc2sccn2c(=O)c1CCN1CCC(=C(c2ccc(F)cc2)c2ccc(F)cc2)CC1 [RITANSERIN]
- activity [2, 3]: 86%

SMILES: C[C@@H](NCCc1ccc(O)cc1)[C@@H](O)c1ccc(O)cc1 [RITODRINE]
- activity [2, 3]: 113%

SMILES: C=C(C)[C@H]1Cc2c(ccc3c2O[C@@H]2COc4cc(OC)c(OC)cc4[C@@H]2C3=O)O1 [ROTENONE]
- activity [2, 3]: 92%

SMILES: C[n+]1cc2c3c(ccc2c2ccc4cc5c(cc4c21)OCO5)OCO3 [SANGUINARIUM CHLORIDE]
- activity [2, 3]: 44%

SMILES: CC(C)[C@@H]1NC(=O)[C@H](CCCCN)NC(=O)[C@@H](Cc2c[nH]c3ccccc23)NC(=O)[C@H](Cc2ccc(O)cc2)NC(=O)[C@H](C)N(C)C(=O)[C@H](Cc2ccccc2)NC1=O [SEGLITIDE]
- activity [2, 3]: 94%

SMILES: CCC(C)(C)C(=O)O[C@H]1C[C@@H](C)C=C2C=C[C@H](C)[C@H](CC[C@@H]3C[C@@H](O)CC(=O)O3)[C@H]21 [SIMVASTATIN]
- activity [2, 3]: 61%

SMILES: CC(C)NCC(O)c1ccc(NS(C)(=O)=O)cc1 (configuration not stated) [SOTALOL]
- activity ([2]; sf9): 96%

SMILES: C[C@@H]1CN(c2c(F)c(N)c3c(=O)c(C(=O)O)cn(C4CC4)c3c2F)C[C@H](C)N1 [SPARFLOXACIN]
- activity [2, 3]: 138%

SMILES: CC(=O)S[C@@H]1CC2=CC(=O)CC[C@]2(C)[C@H]2CC[C@@]3(C)[C@@H](CC[C@@]34CCC(=O)O4)[C@H]12 [SPIRONOLACTONE]
- activity [2, 3]: 125%

SMILES: O=C(O)c1cc(/N=N/c2ccc(S(=O)(=O)Nc3ccccn3)cc2)ccc1O [SULFASALAZINE]
- activity [2, 3]: 77%

SMILES: O=C1C(CC[S+]([O-])c2ccccc2)C(=O)N(c2ccccc2)N1c1ccccc1 (configuration not stated) [SULFINPYRAZONE]
- activity [2, 3]: 150%

SMILES: O=C1OC(c2ccc(O)c(S(=O)(=O)O)c2)(c2ccc(O)c(S(=O)(=O)O)c2)c2c(Br)c(Br)c(Br)c(Br)c21 [SULFOBROMOPHTHALEIN SODIUM]
- activity [2, 3]: 5%

SMILES: CC/C(=C(\c1ccccc1)c1ccc(OCCN(C)C)cc1)c1ccccc1 [TAMOXIFEN]
- activity [2, 3]: 8%

SMILES: C[C@H](CCC(=O)NCCS(=O)(=O)O)[C@H]1CC[C@H]2[C@@H]3CC[C@@H]4C[C@H](O)CC[C@]4(C)[C@H]3CC[C@]12C [TAUROLITHOCHOLIC ACID]
- activity [2, 3]: 27%

SMILES: COc1cc2nc(N3CCN(C(=O)C4CCCO4)CC3)nc(N)c2cc1OC (configuration not stated) [TERAZOSIN]
- activity ([2]; sf9): 94%

SMILES: CC(C)(C)c1ccc(C(O)CCCN2CCC(C(O)(c3ccccc3)c3ccccc3)CC2)cc1 (configuration not stated) [TERFENADINE]
- activity ([2]; sf9): 3%

SMILES: C[C@]12CC[C@H]3[C@@H](CCC4=CC(=O)CC[C@@]43C)[C@@H]1CC[C@@H]2O [TESTOSTERONE]
- activity [2, 3]: 140%

SMILES: CN(C)[C@@H]1C(O)=C(C(N)=O)C(=O)[C@@]2(O)C(O)=C3C(=O)c4c(O)cccc4[C@@](C)(O)[C@H]3C[C@@H]12 [TETRACYCLINE]
- activity ([2]; sf9): 110%

SMILES: CSc1ccc2c(c1)N(CCC1CCCCN1C)c1ccccc1S2 (configuration not stated) [THIORIDAZINE]
- activity [2, 3]: -1%

SMILES: CC(C)(C)NC[C@H](O)COc1nsnc1N1CCOCC1 [TIMOLOL]
- activity ([2]; sf9): 91%

SMILES: CCS(=O)(=O)CCn1c([N+](=O)[O-])cnc1C [TINIDAZOLE]
- activity [2, 3]: 55%

SMILES: COc1cccc([C@@]2(O)CCCC[C@@H]2CN(C)C)c1 [TRAMADOL]
- activity [2, 3]: 89%

SMILES: COc1cc(Cc2cnc(N)nc2N)cc(OC)c1OC [TRIMETHOPRIM]
- activity ([2]; sf9): 107%

SMILES: N[C@@H](Cc1c[nH]c2ccccc12)C(=O)O [TRYPTOPHAN]
- activity [2, 3]: 66%

SMILES: CC(C)[C@H](N)C(=O)OCCOCn1cnc2c(=O)[nH]c(N)nc21 [VALACYCLOVIR]
- activity [2, 3]: 94%

SMILES: CCCC(CCC)C(=O)O [VALPROIC ACID]
- activity [2, 3]: 94%

SMILES: CC[C@]1(O)C[C@@H]2CN(CCc3c([nH]c4ccccc34)[C@@](C(=O)OC)(c3cc4c(cc3OC)N(C)[C@H]3[C@@](O)(C(=O)OC)[C@H](OC(C)=O)[C@]5(CC)C=CCN6CC[C@]43[C@@H]65)C2)C1 [VINBLASTINE]
- activity [2, 3]: 78%

SMILES: CC[C@]1(O)C[C@H]2CN(CCc3c([nH]c4ccccc34)[C@@](C(=O)OC)(c3cc4c(cc3OC)N(C=O)[C@H]3[C@@](O)(C(=O)OC)[C@H](OC(C)=O)[C@]5(CC)C=CCN6CC[C@]43[C@@H]65)C2)C1 [VINCRISTINE]
- activity [2, 3]: 82%

SMILES: CC(=O)CC(c1ccccc1)c1c(O)c2ccccc2oc1=O (configuration not stated) [WARFARIN]
- activity [2, 3]: 136%

SMILES: Cc1cn([C@H]2C[C@H](N=[N+]=[N-])[C@@H](CO)O2)c(=O)[nH]c1=O [ZIDOVUDINE]
- activity [2, 3]: 103%
